Data from ChEMBL document CHEMBL1126639, “Centrally acting serotonergic and dopaminergic agents. 2. Synthesis and structure-activity relationships of 2,3,3a,4,9,9a-hexahydro-1H-benz[f]indole derivatives” (J Med Chem, 1993).

What was measured:
Mus musculus [1] = experiment: Effective dose on hypothermia in mouse when administered through peroral route; assay type: functional
Rattus norvegicus [2] = experiment: Inhibition of firing rates of serotonergic neurons in the dorsal raphe nucleus by intravenous injection in rats; assay type: functional
Mus musculus [3] = experiment: Time of effect in the isolation-induced aggression behavioral assay in the mouse when a dose of 1.1 micro mol/kg is administered perorally; assay type: functional
Mus musculus [4] = experiment: Maximum decrease in temperature when compound is administered through peroral route; assay type: functional
Mus musculus [5] = experiment: Time of effect in the isolation-induced aggression behavioral assay in the mouse when a dose of 11 umol/kg is administered intraperitoneally; assay type: functional
Mus musculus [6] = experiment: Maximum decrease in temperature when compound is administered subcutaneously; assay type: functional
Mus musculus [7] = experiment: (§1) Time of effect in the face-to-face behavioral assay in the mouse when a dose of […] is administered perorally; assay type: functional
Rattus norvegicus [8] = experiment: Effect on the synthesis rates of serotonin (5-HTP accumulation) in the rat ventral limbic brain region 10.7 umol/kg.; assay type: functional, Limbic system
Mus musculus [9] = experiment: as §1; assay type: functional; remark: listed apart in the source
D(2) dopamine receptor = D(2) dopamine receptor (Rattus norvegicus, UniProt P61169); experiment: Inhibitory concentration against [3H]raclopride-labeled dopamine receptor D2 in rat striatum; assay type: tissue-based
Rattus norvegicus [10] = experiment: Effect on the synthesis rates of dopamine (DOPA accumulation) in the rat ventral limbic brain region at 10.7 uM/kg.; assay type: functional, Limbic system
Mus musculus [11] = experiment: Time of effect in the isolation-induced aggression behavioral assay in the mouse when a dose of 36 micro mol/kg is administered perorally; assay type: functional
Mus musculus [12] = experiment: Effective dose on hypothermia in mouse when administered subcutaneously; assay type: functional
Mus musculus [13] = experiment: Time of effect in the isolation-induced aggression behavioral assay in the mouse when a dose of 11 micro mol/kg is administered perorally; assay type: functional
Mus musculus [14] = experiment: Time of effect in the isolation-induced aggression behavioral assay in the mouse when a dose of 36 micro mol/kg is administered intraperitoneally; assay type: functional
Rattus norvegicus [15] = experiment: Inhibition of firing rates of dopaminergic neurons in the substantia nigra pars compacta by intravenous injection in rats; assay type: functional
Mus musculus [16] = experiment: Time of effect in the isolation-induced aggression behavioral assay in the mouse when a dose of 0.0 micro mol/kg is administered perorally; assay type: functional
Mus musculus [17] = experiment: Time of effect in the face-to-face behavioral assay in the mouse when a dose of 0.4 umol/kg is administered perorally; assay type: functional
Mus musculus [18] = experiment: Time of effect in the isolation-induced aggression behavioral assay in the mouse when a dose of 3.6 micro mol/kg is administered perorally; assay type: functional
Mus musculus [19] = experiment: Time of effect in the isolation-induced aggression behavioral assay in the mouse when a dose of 0.0 umol/kg is administered intraperitoneally; assay type: functional
Mus musculus [20] = experiment: Ability to stimulate dopaminergic systems by effect on locomotor activity in reserpinized mice when a dose of 0.3 micro mol/kg is administered intraperitoneally; assay type: functional
Mus musculus [21] = experiment: Antagonism of apomorphine for 10-20 minutes in reserpinized mice when a dose of 2.7 micro mol/kg is administered intraperitoneally; assay type: functional
Mus musculus [22] = experiment: Antagonism of apomorphine in reserpinized mice when a dose of 2.7 micro mol/kg is administered intraperitoneally; assay type: functional
Rattus norvegicus [23] = experiment: Effect on the synthesis rates of serotonin in the rat ventral limbic brain region 2.7 micro mol/kg.; assay type: functional, Limbic system
Mus musculus [24] = experiment: Antagonism of apomorphine in reserpinized mice when a dose of 0.3 micro mol/kg is administered intraperitoneally; assay type: functional
Mus musculus [25] = experiment: Antagonism of apomorphine for 0-10 minutes in reserpinized mice when a dose of 2.7 micro mol/kg is administered intraperitoneally; assay type: functional
Mus musculus [26] = experiment: Antagonism of apomorphine for 10-20 minutes in reserpinized mice when a dose of 0.3 micro mol/kg is administered intraperitoneally; assay type: functional
Mus musculus [27] = experiment: Antagonism of apomorphine for 0-10 minutes in reserpinized mice when a dose of 0.3 micro mol/kg is administered intraperitoneally; assay type: functional
Mus musculus [28] = experiment: Ability to stimulate dopaminergic systems by effect on locomotor activity in reserpinized mice when a dose of 2.7 micro mol/kg is administered intraperitoneally; assay type: functional
Rattus norvegicus [29] = experiment: Effect on the synthesis rates of dopamine in the rat ventral limbic brain region at 2.7 micro mol/kg.; assay type: functional, Limbic system
Mus musculus [30] = experiment: Ability to stimulate dopaminergic systems by effect on locomotor activity in reserpinized mice when a dose of 33 micro mol/kg is administered intraperitoneally; assay type: functional
Mus musculus [31] = experiment: Antagonism of apomorphine in reserpinized mice when a dose of 33 micro mol/kg is administered intraperitoneally; assay type: functional
Mus musculus [32] = experiment: Antagonism of apomorphine for 0-10 minutes in reserpinized mice when a dose of 3.3 micro mol/kg is administered intraperitoneally; assay type: functional
Mus musculus [33] = experiment: Antagonism of apomorphine for 10-20 minutes in reserpinized mice when a dose of 3.3 micro mol/kg is administered intraperitoneally; assay type: functional
Mus musculus [34] = experiment: Antagonism of apomorphine for 10-20 minutes in reserpinized mice when a dose of 33 micro mol/kg is administered intraperitoneally; assay type: functional
Mus musculus [35] = experiment: Antagonism of apomorphine in reserpinized mice when a dose of 3.3 micro mol/kg is administered intraperitoneally; assay type: functional
Mus musculus [36] = experiment: Ability to stimulate dopaminergic systems by effect on locomotor activity in reserpinized mice when a dose of 3.3 micro mol/kg is administered intraperitoneally; assay type: functional
Mus musculus [37] = experiment: Antagonism of apomorphine for 0-10 minutes in reserpinized mice when a dose of 33 micro mol/kg is administered intraperitoneally; assay type: functional

Sequence of D(2) dopamine receptor (P61169 whole entry): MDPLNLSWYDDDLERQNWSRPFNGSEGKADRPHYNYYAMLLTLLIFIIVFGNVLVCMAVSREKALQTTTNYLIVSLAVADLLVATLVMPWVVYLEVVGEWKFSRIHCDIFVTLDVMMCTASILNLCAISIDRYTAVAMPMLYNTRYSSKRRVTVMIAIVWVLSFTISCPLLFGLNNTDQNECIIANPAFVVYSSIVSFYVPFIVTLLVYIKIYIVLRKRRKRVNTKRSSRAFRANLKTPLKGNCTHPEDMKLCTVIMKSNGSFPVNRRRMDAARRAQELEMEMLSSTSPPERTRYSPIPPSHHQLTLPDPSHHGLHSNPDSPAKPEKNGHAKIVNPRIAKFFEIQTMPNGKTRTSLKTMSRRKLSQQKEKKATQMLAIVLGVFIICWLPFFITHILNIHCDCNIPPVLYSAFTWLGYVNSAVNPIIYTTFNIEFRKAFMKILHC

C=CCN1CC[C@@H]2Cc3c(cccc3OC)C[C@H]21
ED50 (Mus musculus [1]): 1.1 µM/kg | ED50 (Rattus norvegicus [2]): 0.08 µM/kg | Time (Mus musculus [3]): 109 s | Max temperature decrease (Mus musculus [4]): 5.6 | Time (Mus musculus [5]): 570 s | Max temperature decrease (Mus musculus [6]): 4.5 | Time (Mus musculus [7]): 1 s | Control (Rattus norvegicus [8]): -41% | Time (Mus musculus [9]): 1.5 s | IC50 (D(2) dopamine receptor): > 1000 nM | Control (Rattus norvegicus [10]): -37% | Time (Mus musculus [11]): 397 s | ED50 (Mus musculus [12]): 0.6 µM/kg | Time (Mus musculus [13]): 257 s | Time (Mus musculus [14]): 600 s | ED50 (Rattus norvegicus [15]): 0.05 µmol/kg | Time (Mus musculus [16]): 5 s | Time (Mus musculus [17]): 1.7 s | Time (Mus musculus [18]): 198 s | Time (Mus musculus [19]): 5 s

O=C(CCCN1CCC(O)(c2ccc(Cl)cc2)CC1)c1ccc(F)cc1 [HALOPERIDOL]
Locomotor activity (Mus musculus [20]): 9 | Locomotor activity (Mus musculus [21]): 28 | ED50 (Rattus norvegicus [2]; Rattus norvegicus, Dorsal raphe nucleus, iv, read-out: ED50): 0.019 µmol/kg | Locomotor activity (Mus musculus [22]): 10 | Control (Rattus norvegicus [23]): -6.6% | Locomotor activity (Mus musculus [24]): 58 | Locomotor activity (Mus musculus [25]): 72 | Locomotor activity (Mus musculus [26]): 71 | Locomotor activity (Mus musculus [27]): 94 | Locomotor activity (Mus musculus [28]): 1 | ED50 (Rattus norvegicus [15]): 0.018 µmol/kg | Control (Rattus norvegicus [29]): 144%

CCCN1CCCC(c2cccc(O)c2)C1 (single isomer, unassigned; (-))
Locomotor activity (Mus musculus [30]): 13 | Locomotor activity (Mus musculus [20]): 31 | Locomotor activity (Mus musculus [31]): 41 | Locomotor activity (Mus musculus [32]): 91 | Locomotor activity (Mus musculus [33]): 83 | Locomotor activity (Mus musculus [34]): 58 | Locomotor activity (Mus musculus [35]): 106 | Locomotor activity (Mus musculus [24]): 118 | Locomotor activity (Mus musculus [36]): 8 | Locomotor activity (Mus musculus [26]): 106 | Locomotor activity (Mus musculus [37]): 59 | Locomotor activity (Mus musculus [27]): 127
